In paper PMC8667902 (Journal of Enzyme Inhibition and Medicinal Chemistry, 2021):
Several values for one entry are separate records, joined by “and”; a condition that tells them apart may be missing. Equal values may be shown once. Read-outs that look alike come from different tables or passages of the source.

Legend:
ratAChE = biological target: T1, ratAChE (Rattus norvegicus, UniProt P37136); test: Ellman's method, AChE from rat cortex homogenate; type: biochemical; details: for SI = Selectivity index = IC50 (BuChE)/IC50 (AChE): ratBuChE over rat AChE
T1 sequence (P37136 32-614): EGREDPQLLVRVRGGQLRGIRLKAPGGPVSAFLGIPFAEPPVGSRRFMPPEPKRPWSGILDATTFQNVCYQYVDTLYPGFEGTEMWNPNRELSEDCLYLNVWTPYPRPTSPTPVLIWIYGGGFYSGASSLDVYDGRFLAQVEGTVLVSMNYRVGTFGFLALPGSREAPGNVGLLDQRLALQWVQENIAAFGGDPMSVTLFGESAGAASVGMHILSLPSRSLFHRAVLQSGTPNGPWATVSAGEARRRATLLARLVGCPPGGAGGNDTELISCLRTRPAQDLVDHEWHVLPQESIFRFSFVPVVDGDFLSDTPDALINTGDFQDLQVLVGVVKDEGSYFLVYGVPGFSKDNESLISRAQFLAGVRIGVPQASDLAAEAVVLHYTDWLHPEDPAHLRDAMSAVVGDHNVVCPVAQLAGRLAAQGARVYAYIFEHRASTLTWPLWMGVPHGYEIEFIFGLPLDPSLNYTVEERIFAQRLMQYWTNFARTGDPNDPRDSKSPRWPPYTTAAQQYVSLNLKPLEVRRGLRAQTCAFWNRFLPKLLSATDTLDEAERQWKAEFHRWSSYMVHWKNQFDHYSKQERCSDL

eeAChE = eeAChE (Electrophorus electricus, UniProt O42275); test: Ellman's method, electric eel AChE; type: biochemical
Chain of eeAChE (O42275 24-633): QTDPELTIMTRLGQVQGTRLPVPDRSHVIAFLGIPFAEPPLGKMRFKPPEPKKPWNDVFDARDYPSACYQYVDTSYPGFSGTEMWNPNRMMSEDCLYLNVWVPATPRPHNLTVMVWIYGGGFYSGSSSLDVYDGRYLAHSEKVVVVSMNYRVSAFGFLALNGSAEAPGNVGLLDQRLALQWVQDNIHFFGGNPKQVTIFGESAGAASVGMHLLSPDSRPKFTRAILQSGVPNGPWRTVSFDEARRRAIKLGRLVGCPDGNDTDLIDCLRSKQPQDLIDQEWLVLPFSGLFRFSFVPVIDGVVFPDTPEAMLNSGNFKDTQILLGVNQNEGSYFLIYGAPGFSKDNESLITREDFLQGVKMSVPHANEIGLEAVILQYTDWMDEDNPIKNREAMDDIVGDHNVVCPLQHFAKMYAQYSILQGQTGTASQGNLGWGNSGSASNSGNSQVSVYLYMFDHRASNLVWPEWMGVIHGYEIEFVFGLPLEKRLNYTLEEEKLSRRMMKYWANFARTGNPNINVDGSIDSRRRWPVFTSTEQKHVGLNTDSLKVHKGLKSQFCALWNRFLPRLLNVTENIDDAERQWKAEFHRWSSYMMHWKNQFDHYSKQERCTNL

ratBuChE = ratBuChE (Rattus norvegicus, UniProt Q9JKC1); test: Ellman's method, BuChE from rat serum; type: biochemical
Chain of ratBuChE (Q9JKC1 24-597): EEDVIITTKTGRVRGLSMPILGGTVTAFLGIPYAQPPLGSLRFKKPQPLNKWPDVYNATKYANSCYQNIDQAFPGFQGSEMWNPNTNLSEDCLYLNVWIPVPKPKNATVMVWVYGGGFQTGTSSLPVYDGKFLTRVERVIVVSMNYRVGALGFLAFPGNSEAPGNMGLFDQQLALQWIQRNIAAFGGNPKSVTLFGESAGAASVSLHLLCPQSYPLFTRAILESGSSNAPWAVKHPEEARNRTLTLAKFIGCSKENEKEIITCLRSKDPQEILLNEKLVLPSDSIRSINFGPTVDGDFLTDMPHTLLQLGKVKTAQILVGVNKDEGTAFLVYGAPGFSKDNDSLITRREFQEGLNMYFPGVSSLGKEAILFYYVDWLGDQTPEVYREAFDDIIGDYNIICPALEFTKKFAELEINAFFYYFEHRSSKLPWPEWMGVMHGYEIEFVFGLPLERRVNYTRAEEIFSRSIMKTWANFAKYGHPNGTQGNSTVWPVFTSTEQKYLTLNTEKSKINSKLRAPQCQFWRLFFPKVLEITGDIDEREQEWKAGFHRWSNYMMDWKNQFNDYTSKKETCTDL

[1] = Oxygen Radicals Absorbance Capacity by Fluorescence; details: for ORAC: Trolox as reference; for ORAC-FL value: Trolox equivalents
Aβ1–42 [2] = biological target: T2, Aβ1–42 (Homo sapiens, UniProt P05067); test: Inhibition of self-induced Aβ1–42 aggregation; type: biochemical; details: ThT assay; for inhibition at 25 µM: read-out: Inhibition of Aβ1–42 aggregation (%) Self-induced, 25 μM
T2 sequence (P05067 672-713): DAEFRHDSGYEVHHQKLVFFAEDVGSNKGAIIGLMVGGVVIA

Aβ1–42 [3] = biological target: T2, Aβ1–42; test: Inhibition of Cu2+-induced Aβ1–42 aggregation; type: biochemical; details: read-out: Inhibition of Aβ1–42 aggregation (%) Cu^2+-induced
huMAO-A = biological target: T3, huMAO-A (Homo sapiens, UniProt P21397); test: huMAO-A inhibition, fluorescence method; type: biochemical; details: for inhibition at 10 µM: read-out: MAO-A percent inhibition rate
T3 sequence (P21397 1-527): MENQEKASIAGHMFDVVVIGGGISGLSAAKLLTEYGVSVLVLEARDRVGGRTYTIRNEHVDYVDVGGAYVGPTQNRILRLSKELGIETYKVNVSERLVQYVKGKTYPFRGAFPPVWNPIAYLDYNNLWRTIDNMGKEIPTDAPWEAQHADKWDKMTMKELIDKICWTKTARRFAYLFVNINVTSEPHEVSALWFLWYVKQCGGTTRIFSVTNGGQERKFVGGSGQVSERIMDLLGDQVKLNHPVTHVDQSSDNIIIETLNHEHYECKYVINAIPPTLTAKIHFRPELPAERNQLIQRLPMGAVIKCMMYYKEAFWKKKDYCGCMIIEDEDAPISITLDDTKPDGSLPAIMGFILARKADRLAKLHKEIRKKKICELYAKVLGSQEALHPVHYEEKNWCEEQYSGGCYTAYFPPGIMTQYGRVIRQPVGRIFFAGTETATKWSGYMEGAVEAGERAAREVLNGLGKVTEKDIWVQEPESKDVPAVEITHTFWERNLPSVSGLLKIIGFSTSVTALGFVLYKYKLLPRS

Aβ1–42 fibrils [4] = biological target: T4, Aβ1–42 fibrils (Homo sapiens, UniProt P05067); test: Disaggregation of self-induced Aβ1–42 aggregation; type: biochemical; details: 25 μM; ThT assay
T4 sequence (P05067 672-713): as the sequence (P05067 672-713) above

Aβ1–42 fibrils [5] = biological target: T4, Aβ1–42 fibrils; test: Disaggregation of Cu2+-induced Aβ1–42 aggregation; type: biochemical
huMAO-B = biological target: T5, huMAO-B (Homo sapiens, UniProt P27338); test: biochemical
T5 sequence (P27338 1-520): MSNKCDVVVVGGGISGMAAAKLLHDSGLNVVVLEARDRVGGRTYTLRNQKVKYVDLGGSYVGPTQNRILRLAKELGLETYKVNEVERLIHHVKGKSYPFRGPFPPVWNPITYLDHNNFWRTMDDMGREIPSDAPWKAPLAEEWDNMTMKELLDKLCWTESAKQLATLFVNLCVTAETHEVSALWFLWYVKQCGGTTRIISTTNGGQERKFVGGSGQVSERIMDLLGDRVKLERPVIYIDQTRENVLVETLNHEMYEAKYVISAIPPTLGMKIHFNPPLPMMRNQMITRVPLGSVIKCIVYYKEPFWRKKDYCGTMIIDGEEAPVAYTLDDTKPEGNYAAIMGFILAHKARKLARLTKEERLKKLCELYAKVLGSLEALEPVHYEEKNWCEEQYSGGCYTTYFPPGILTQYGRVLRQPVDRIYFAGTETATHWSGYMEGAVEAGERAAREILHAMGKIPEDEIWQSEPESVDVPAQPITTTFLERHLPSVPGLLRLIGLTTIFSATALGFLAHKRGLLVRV

Compound | IC50 (ratAChE) [µM] | IC50 (eeAChE) [µM] | IC50 (ratBuChE) [µM] | ORAC [1] | ORAC-FL value [1] [eq] | inhibition at 25 µM (Aβ1–42 [2]) [%] | inhibition at 25 µM (Aβ1–42 [3]) [%] | inhibition at 10 µM (huMAO-A) [%] | SI = Selectivity index = IC50 (BuChE)/IC50 (AChE) (ratAChE) | Disaggregation of Aβ1–42 aggregation (%) Self-induced (Aβ1–42 fibrils [4]) [%] | Disaggregation of Aβ1–42 aggregation (%) Cu^2+-induced (Aβ1–42 fibrils [5]; 25 μM, ThT assay) | IC50 (huMAO-B) [µM] | SI = selectivity index = IC50 (hMAO-A)/IC50 (hMAO-B) (huMAO-B) | IC50 (huMAO-A) [µM] | Disaggregation of Aβ1–42 aggregation (%) Cu^2+-induced (Aβ1–42 fibrils [5]) [%] | Inhibition of Aβ1–42 aggregation (%) Self-induced (Aβ1–42 [2]; 25 μM)
COc1cc(O)c(C(=O)/C=C/c2ccc(O)cc2)c(OC)c1OC [Compound 8, (E)-1-(6-hydroxy-2,3,4-trimethoxyphenyl)-3-(4-hydroxyphenyl)-2-propen-1-one] | > 500 | > 500 | > 500 | 5.4 ± 0.01 μM of Trolox equivalent/μM of compounds | 5.4 | 23.1 ± 0.01 | 33.2 ± 0.01 | 22.9 | – | – | – | – | – | – | – | –
COc1ccccc1CN(C)CCCOc1ccc(/C=C/C(=O)c2c(O)cc(OC)c(OC)c2OC)cc1 [Compound 9a, (E)-1-(6-Hydroxy-2,3,4-trimethoxyphenyl)-3-(4-(3-((2-methoxybenzyl)(methyl)amino)propoxy)phenyl)prop-2-en-1-one] | 3.12 ± 0.02 | 1.46 ± 0.02 | > 500 | 1.01 ± 0.01 μM of Trolox equivalent/μM of compounds | – | 57.4 ± 0.01 | 66.2 ± 0.02 | 13.9 | >160.3 | 26.8 ± 0.02 | 54.2 ± 0.02% | 3.8 ± 0.02 | – | – | – | –
CCN(CCCOc1ccc(/C=C/C(=O)c2c(O)cc(OC)c(OC)c2OC)cc1)Cc1ccccc1OC [Compound 9b, (E)-3-(4-(3-(ethyl(2-methoxybenzyl)amino)propoxy)phenyl)-1-(6-hydroxy-2,3,4-trimethoxyphenyl)prop-2-en-1-one] | 0.67 ± 0.01 | 1.62 ± 0.01 | > 500 | 0.93 ± 0.01 μM of Trolox equivalent/μM of compounds | – | 63.4 ± 0.03 | 71.6 ± 0.01 | – | >746.3 | 22.2 ± 0.03 | 55.1 ± 0.22% | 8.1 ± 0.03 | 2.4 | 19.8 ± 0.22 | – | –
COc1ccccc1CN(C)CCCCOc1ccc(/C=C/C(=O)c2c(O)cc(OC)c(OC)c2OC)cc1 [Compound 9c, (E)-1-(6-hydroxy-2,3,4-trimethoxyphenyl)-3-(4-(4-((2-methoxybenzyl)(methyl)amino)butoxy)phenyl)prop-2-en-1-one] | 1.77 ± 0.01 | 1.5 ± 0.02 | > 500 | 0.97 ± 0.01 μM of Trolox equivalent/μM of compounds | – | 65 ± 0.01 | 74.1 ± 0.02 | – | >282.5 | 45.7 ± 0.12 | 66.6 ± 0.36% | 23.6 ± 0.12 | 1.5 | 35.7 ± 0.36 | – | –
COc1ccccc1CN(C)CCCCCCOc1ccc(/C=C/C(=O)c2c(O)cc(OC)c(OC)c2OC)cc1 [Compound 9e, (E)-1-(6-hydroxy-2,3,4-trimethoxyphenyl)-3-(4-(6-((2-methoxybenzyl)(methyl)amino)hexyloxy)phenyl)prop-2-en-1-one] | 1.68 ± 0.01 | 1 ± 0.03 | > 500 | 0.99 ± 0.02 μM of Trolox equivalent/μM of compounds | – | 65.3 ± 0.02 | 76.2 ± 0.04 | – | >297.6 | 58.2 ± 0.01 | 77.0 ± 0.57% | 2.5 ± 0.01 | 15.1 | 37.8 ± 0.57 | – | –
CCN(CCCCCCOc1ccc(/C=C/C(=O)c2c(O)cc(OC)c(OC)c2OC)cc1)Cc1ccccc1OC [Compound 9f, (E)-3-(4-(6-(ethyl(2-methoxybenzyl)amino)hexyloxy)phenyl)-1-(6-hydroxy-2,3,4-trimethoxyphenyl)prop-2-en-1-one] | 0.61 ± 0.01 | 1.78 ± 0.02 | > 500 | 0.96 ± 0.01 μM of Trolox equivalent/μM of compounds | – | 69 ± 0.01 | 75 ± 0.02 | – | >819.7 | 62.8 ± 0.03 | 81.4 ± 0.68% | 7.2 ± 0.03 | 6.1 | 43.6 ± 0.68 | – | –
CCN(CC)CCCCOc1ccc(/C=C/C(=O)c2c(O)cc(OC)c(OC)c2OC)cc1 [Compound 10, (E)-3-(4-(4-(diethylamino)butoxy)phenyl)-1-(6-hydroxy-2,3,4-trimethoxyphenyl)prop-2-en-1-one] | 4.94 ± 0.02 | 2.72 ± 0.02 | > 500 | 1.02 ± 0.01 μM of Trolox equivalent/μM of compounds | – | 37.7 ± 0.02 | 49.4 ± 0.02 | – | >101.2 | 25.6 ± 0.03 | 26.2% and 26.2 ± 0.28% | 14.6 ± 0.03 | 1.9 | 27.9 ± 0.28 | – | –
COc1cc(O)c(C(=O)/C=C/c2ccc(O)cc2)c(OC)c1O [Compound 16, 3′,4,6′-Trihydroxy-2′,4′-dimethoxy-chalcone] | > 500 | > 500 | > 500 | 7.8 ± 0.01 μM of Trolox equivalent/μM of compounds | 7.8 | 27.7 ± 0.02 | 38.1 ± 0.01 | – | – | – | – | – | – | 15.4 ± 0.16 | – | –
COc1cc(/C=C/C(=O)CC(=O)/C=C/c2ccc(O)c(OC)c2)ccc1O [Curcumin, reference compound] | – | – | – | – | – | 47.3 ± 0.01 | 76.5 ± 0.02 | – | – | – | – | – | – | – | 56.5 ± 0.21 | –
COc1cc2c(cc1OC)C(=O)C(CC1CCN(Cc3ccccc3)CC1)C2 (centres unmarked) [Donepezil, reference compound] | – | – | – | – | – | < 5 | – | – | – | – | – | – | – | – | – | n.a.^g (no active, meaning inhibition rate was <5.0% at 25 μM)
